Experimental data: patent publication US20110112121A1, “Pharmaceutical Compositions and Solid Forms” (priority 2009, published 2011)
Several values for one entry are separate records, joined by “and”; a condition that tells them apart may be missing. Identical values can stand only once.

What was measured:
[1] = Stability of crystal forms under ambient conditions; type: physicochemical
[2] = test system: VEGF-induced extravasation; assay: Miles assay in domestic pigs; type: in vivo
Protocol: (§1) Vascular endothelial growth factors (VEGFs) have angiogenic and vascular permeability-promoting activities in vitro and in vivo. […] Young domestic pigs were used because pig skin is very similar to human skin in architecture and permeability for xenobiotics. Inhibition of dermal angiogenesis related to the agent of the invention was tested with an “matrigel” assay which was developed for studies in pigs; inhibition of vascular permeability in the skin with a modified Miles assay. With matrigel implants into which endothelial cells immigrate to form new vessels anti-angiogenic effects of applied test articles can be assessed in vivo; with the Miles assay, extravasation of Evans blue-labeled albumin is measured after VEGF-induced vascular leakage.
Method: Test areas of 5×20 cm on both paramedian ventral abdominal sides of 16-18 kg weighing domestic pigs were topically treated with 1 ml of 0.8% 6-(6-hydroxymethyl-pyrimidin-4-yloxy)-naphthalene-1-carboxylic acid (3-trifluoromethyl-phenyl)-amide trice (30, 7 and 3 hrs prior to elicitation of vascular leakage with VEGF). […] Evans blue was extracted from the biopsies with 0.5 ml formamide and the concentration of Evans blue in the supernatants was measured photometrically. […]

[3] = Solubility of the agent in hydrophilic and hydrophobic media; type: physicochemical; conditions: hydrophilic and hydrophobic media (aqueous and oily media)
dermal angiogenesis = assay: Matrigel assay in domestic pigs; type: in vivo
Protocol: as §1
Method: Test areas on both paramedian ventral abdominal sides of 16-18 kg weighing domestic pigs were topically treated with 0.5% 6-(6-hydroxymethyl-pyrimidin-4-yloxy)-naphthalene-1-carboxylic acid (3-trifluoromethyl-phenyl)-amide or the vehicle (ethanol/propylene glycol 3/7) alone. Treatment was performed twice daily on days 1-4. On day 2, 100 μl matrigel, loaded with the angiogenic factors […] VEGF-165 and 40 U/ml heparin were injected intradermally at 10 different sites of the treated areas. On day 5, the animals were sacrificed and 8 mm punches from the injection sites collected, the subcutaneous fatty tissue removed, the hemorrhagic plugs carefully dissected and weighed. Thereafter, the samples were digested with dispase and single cell suspensions prepared. The isolated cells were stained with the endothelial cell marker CD31 or isotype controls and analyzed with FACS after gating for endothelial cells.

[4] = 0.5% in ethanol:propylene glycol 3/7, topical twice daily days 1-4, plugs excised day 5

stability of the modification (in words) [1]	solubility properties (in words) [3]	SMILES	inhibition of VEGF-induced extravasation ([2]; 0.8% agent topically 30, 7 and 3 hrs before VEGF 165, vs placebo) [%]	Evans blue concentration (μg/ml tissue extract) ([2]; 0.8% agent, 1 ml topically 30, 7 and 3 hrs before VEGF 165 injection, biopsies 30 min after challenge)	difference in CD31+ cell number vs vehicle-treated sites (dermal angiogenesis; 0.5% epicutaneously, gated on endothelial cells) [%]	plug weight less than vehicle-treated sites (dermal angiogenesis; 0.5% epicutaneously, vs vehicle) [%]	Cell counts (CD31+)/μl, gated on endothelial cells (dermal angiogenesis; [4]) [µL⁻¹]	Weight (mg) of excised plugs (dermal angiogenesis; [4])
particularly stable modification		O.O=C(Nc1cccc(C(F)(F)F)c1)c1cccc2cc(Oc3cc(CO)ncn3)ccc12.O=C(Nc1cccc(C(F)(F)F)c1)c1cccc2cc(Oc3cc(CO)ncn3)ccc12 [Crystal form B, 6-(6-Hydroxymethyl-pyrimidin-4-yloxy)-naphthalene-1-carboxylic acid (3-trifluoromethyl-phenyl)-amide hemihydrate, modification B]						
	very poor solubility properties	O=C(Nc1cccc(C(F)(F)F)c1)c1cccc2cc(Oc3cc(CO)ncn3)ccc12 [agent of the invention, 6-(6-hydroxymethyl-pyrimidin-4-yloxy)-naphthalene-1-carboxylic acid (3-trifluoromethyl-phenyl)-amide]	24	1.26 (0.13)++ μg/ml tissue extract	66	19	353	88 mg and 87.8 mg
